According to article PMC8585833, “Serum concentrations of antidepressants, antipsychotics, and antiepileptics over the bariatric surgery procedure” (European Journal of Clinical Pharmacology, 2021):
Where two headings read alike, the source gives them in different places.

How the values were obtained:
[1] = Dose-adjusted steady-state trough serum concentrations before and after low-calorie diet and bariatric surgery; type: in vivo, human; conditions: for Reduction of dose-adjusted concentration on the last day of sampling: post-surgery versus pre-surgery, substances with samples from six or more participants; for Course of dose-adjusted concentration after surgery: following the low-calorie diet; for Change in dose-adjusted concentration over the pre-surgery low-calorie diet: after the pre-surgery diet, before surgery, median weight reduction 6 kg
Excerpt: We designed the study as a naturalistic longitudinal, prospective case series with intra-individual comparisons of drug concentrations over time, before and up to 1 year after the surgical procedure.
The participants contributed blood samples to the current study during routine pre-surgery visits before, and post-surgery visits about 8 weeks, 6 months, and 1 year after, the surgery. Pre-surgery sampling generally occurred twice: at an initial preoperative assessment visit, and just before surgery. Between these visits, that is, before surgery, patients were required to adhere to a low-calorie diet and show a weight reduction. The samples were stored as serum in −80 °C at a biobank, and analysed after all samples had been collected.
Before every routine visit at which the sampling was to occur, we contacted the participants by telephone to systematically obtain information on the current dose as well as adherence to the drug treatment in question over the 2 preceding weeks. Samples were excluded from the data set if non-adherence less than four elimination half-lives prior to sampling was reported; exceptions were made for occasional missed doses of fluoxetine. Half-lives applied were those described for a drug or its metabolite in the summary of product characteristics. We also asked for and recorded concomitant drug treatment, weight, and smoking status. To be able to relate potential changes in concentration to health consequences, we asked the participants during the follow-up phone calls, using an open question, if anything had happened to their health since the last visit. To obtain trough blood concentrations, we strived to schedule the routine visits before lunchtime and the participants were instructed not to take morning tablets before the sampling.
Specific substances were analysed concomitantly, using clinical routine methods, at accredited laboratories at the Department of Clinical Chemistry, Sahlgrenska University Hospital, Gothenburg, Sweden, or (as for gabapentin, hydroxybupropion, mianserine, pregabalin, paroxetine and topiramate) at the Department of Clinical Pharmacology, St. Olav’s Hospital, Trondheim, Norway. Analysis methods were based on liquid chromatography/tandem mass spectrometry or (for lamotrigine and valproic acid) enzyme immunoassay.
Statistical analyses were performed using SPSS, version 23.0 (IBM SPSS Statistics for Windows, Armonk, NY, USA). Participants treated with the same substance before and after surgery, with one or more trough sample concentrations available, were included in the analysis. To allow interindividual and intraindividual comparisons, serum concentrations were adjusted for defined daily dose (DDD). For example, since DDD for citalopram is 20 mg, a DDD-adjusted citalopram concentration of 100 nmol/L could represent a measured concentration of 50, 100, or 200 nmol/L, given a daily dose of 10, 20, or 40 mg, respectively. To compare pre- to post-surgery concentrations, as well as pre- to post-diet concentrations, we used Wilcoxon signed rank test for substances with samples available for six or more individuals. We used Spearman’s correlation to explore the relationship between the ratio of the post-/pre-diet concentrations and (i) the distribution coefficient for the drug in question, i.e., the logarithm of the ratio of its concentration in a lipophilic and a hydrophilic solution (logD), as well as (ii) the weight loss in kilograms for pregabalin.

[2] = octanol/water, pH 7.4; source not stated; cited from earlier work
[3] = Table 2A, trough serum, adjusted for dose in DDDs
[4] = Table 2A, trough serum, adjusted for dose in DDDs, last observation carried forward, median 379 days after surgery
[5] = Table 2B, trough serum, adjusted for dose in DDDs, after pre-surgery low-calorie diet
[6] = Table 2B, trough serum, adjusted for dose in DDDs, before low-calorie diet
[7] = Table 2A, antiepileptics, trough serum, adjusted for dose in DDDs
[8] = Table 2A, antiepileptics, trough serum, adjusted for dose in DDDs, last observation carried forward, median 379 days after surgery
[9] = Table 2B, antiepileptics, trough serum, adjusted for dose in DDDs, after pre-surgery low-calorie diet
[10] = Table 2B, antiepileptics, trough serum, adjusted for dose in DDDs, before low-calorie diet
[11] = human, in vivo, 379 days after surgery (median), trough

CN(C)CCC=C1c2ccccc2CCc2ccccc21 [Amitriptyline]
Dose-adjusted drug concentration Median (IQR), Pre-diet/pre-surgery [1, 3]: 283 (N/A) nmol/L | Dose-adjusted drug concentration Median (IQR), Post-surgery [1, 4]: 218 (N/A) nmol/L | Dose-adjusted drug concentration Median (IQR), post-diet [1, 5]: 279 (N/A) nmol/L | Dose-adjusted drug concentration Median (IQR), pre-diet [1, 6]: 283 (N/A) nmol/L

CN(C)CCCC1(c2ccc(F)cc2)OCc2cc(C#N)ccc21 (stereo not shown) [Citalopram]
Concentration, Post-surgery ([1]; Case 1, GBP, day +252, drug dose 10 mg): 69 nM | Concentration, Post-surgery ([1]; Case 1, GBP, day +374, drug dose 20 mg): 158 nM | Concentration, Baseline ([1]; Case 1, GBP, drug dose 10 mg): 137 nM | Concentration, Post-surgery ([1]; Case 2, GBP, day +178, drug dose 10 mg): 42 nM | Concentration, Post-surgery ([1]; Case 2, GBP, day +386, drug dose 20 mg): 90 nM | Concentration, Baseline ([1]; Case 2, GBP, drug dose 10 mg): 89 nM | Reduction of dose-adjusted concentration on the last day of sampling [1]: 19%

CNCC[C@H](Oc1cccc2ccccc12)c1cccs1 [Duloxetine]
logD [2]: 1.54 | Course of dose-adjusted concentration after surgery [1]: continued to decrease | Change in dose-adjusted concentration over the pre-surgery low-calorie diet [1]: varied | Dose-adjusted drug concentration Median (IQR), Pre-diet/pre-surgery ([1]; human, in vivo): 127 (96–203) nmol/L | Dose-adjusted drug concentration Median (IQR), post-diet ([1]; human, in vivo): 105 (64–235) nmol/L | Dose-adjusted drug concentration Median (IQR), pre-diet ([1]; human, in vivo): 127 (96–203) nmol/L | concentration at 379 days after surgery (median), trough ([1]; human, in vivo): 82 nM | Reduction of dose-adjusted concentration on the last day of sampling [1]: 35%

CNCCC(Oc1ccc(C(F)(F)F)cc1)c1ccccc1 (stereo not shown) [Fluoxetine]
Course of dose-adjusted concentration after surgery [1]: continued to increase also after surgery | Dose-adjusted drug concentration Median (IQR), Pre-diet/pre-surgery ([1]; human, in vivo): 221 (157–371) nmol/L | Dose-adjusted drug concentration Median (IQR), post-diet ([1]; human, in vivo): 263 (182–333) nmol/L | Dose-adjusted drug concentration Median (IQR), pre-diet ([1]; human, in vivo): 259 (147–379) nmol/L | concentration at 379 days after surgery (median), trough ([1]; human, in vivo): 294 nM

NCC1(CC(=O)O)CCCCC1 [Gabapentin]
Dose-adjusted drug concentration Median (IQR), Pre-diet/pre-surgery [1, 7]: 34 (N/A) µmol/L | Dose-adjusted drug concentration Median (IQR), Post-surgery [1, 8]: 35 (N/A) µmol/L | Dose-adjusted drug concentration Median (IQR), post-diet [1, 9]: 43 (N/A) µmol/L | Dose-adjusted drug concentration Median (IQR), pre-diet [1, 10]: 28 (N/A) µmol/L | Change in dose-adjusted concentration over the pre-surgery low-calorie diet [1]: increased

C[C@H]1NC(C)(C)CO[C@]1(O)c1cccc(Cl)c1 [Hydroxybupropion]
Dose-adjusted drug concentration Median (IQR), Pre-diet/pre-surgery [1, 3]: 3,997 (N/A) nmol/L | Dose-adjusted drug concentration Median (IQR), Post-surgery [1, 4]: 3,298 (N/A) nmol/L | Dose-adjusted drug concentration Median (IQR), post-diet [1, 5]: 3,067 (N/A) nmol/L | Dose-adjusted drug concentration Median (IQR), pre-diet [1, 6]: 2,732 (N/A) nmol/L

Nc1nnc(-c2cccc(Cl)c2Cl)c(N)n1 [Lamotrigine]
Dose-adjusted drug concentration Median (IQR), Pre-diet/pre-surgery [1, 7]: 17 (15–23) µmol/L | Dose-adjusted drug concentration Median (IQR), post-diet [1, 9]: 23 (19–29) µmol/L | Dose-adjusted drug concentration Median (IQR), pre-diet [1, 10]: 17 (15–25) µmol/L | Change in dose-adjusted concentration over the pre-surgery low-calorie diet [1]: increased | concentration at 379 days after surgery (median), trough ([1]; human, oral, Table 2A, antiepileptics, trough serum, adjusted for dose in DDDs, last observation carried forward, median 379 days after surgery, read-out: Dose-adjusted drug concentration Median (IQR), Post-surgery): 18000 nM

CN1CCN2c3ncccc3Cc3ccccc3C2C1 (stereo not shown) [Mirtazapine]
Concentration, Post-surgery ([1]; Case 3, GBP, day +68, drug dose 15 mg): 30 nM | Concentration, Post-surgery ([1]; Case 3, GBP, day +368, drug dose 30 mg): 203 nM | Concentration, Baseline ([1]; Case 3, GBP, drug dose 15 mg): 96 nM | Concentration, Post-surgery ([1]; Case 4, Sleeve, day 213, drug dose 30 mg): 87 nM | Concentration, Post-surgery ([1]; Case 4, Sleeve, day 393, drug dose 45 mg): 119 nM | Concentration, Baseline ([1]; Case 4, Sleeve, drug dose 30 mg): 140 nM | Change in dose-adjusted concentration over the pre-surgery low-calorie diet [1]: decreased | Dose-adjusted drug concentration Median (IQR), Pre-diet/pre-surgery ([1]; human, in vivo): 148 (131–170) nmol/L | Dose-adjusted drug concentration Median (IQR), post-diet ([1]; human, in vivo): 76 (50–102) nmol/L | Dose-adjusted drug concentration Median (IQR), pre-diet ([1]; human, in vivo): 138 (120–157) nmol/L | concentration at 379 days after surgery (median), trough ([1]; human, in vivo): 88 nM | Reduction of dose-adjusted concentration on the last day of sampling [1]: 41%

Cc1cc2c(s1)Nc1ccccc1N=C2N1CCN(C)CC1 [Olanzapine]
Dose-adjusted drug concentration Median (IQR), Pre-diet/pre-surgery ([1]; human, in vivo): 113 (N/A) nmol/L

Fc1ccc([C@@H]2CCNC[C@H]2COc2ccc3c(c2)OCO3)cc1 [Paroxetine]
Dose-adjusted drug concentration Median (IQR), Pre-diet/pre-surgery ([1]; human, in vivo): 22 (N/A) nmol/L | Dose-adjusted drug concentration Median (IQR), post-diet ([1]; human, in vivo): 69 (N/A) nmol/L | Dose-adjusted drug concentration Median (IQR), pre-diet ([1]; human, in vivo): 22 (N/A) nmol/L | Dose-adjusted drug concentration Median (IQR), Post-surgery [1, 11]: 167 (N/A) nmol/L

OCCOCCN1CCN(C2=Nc3ccccc3Sc3ccccc32)CC1 [Quetiapine]
Change in dose-adjusted concentration over the pre-surgery low-calorie diet [1]: decreased | Dose-adjusted drug concentration Median (IQR), Pre-diet/pre-surgery ([1]; human, in vivo): 848 (N/A) nmol/L | Dose-adjusted drug concentration Median (IQR), post-diet ([1]; human, in vivo): 260 (N/A) nmol/L | Dose-adjusted drug concentration Median (IQR), pre-diet ([1]; human, in vivo): 848 (N/A) nmol/L | Dose-adjusted drug concentration Median (IQR), Post-surgery [1, 11]: 239 (N/A) nmol/L

CN[C@H]1CC[C@@H](c2ccc(Cl)c(Cl)c2)c2ccccc21 [Sertraline]
Concentration, Post-surgery ([1]; Case 3, GBP, day +68, drug dose 200 mg): 66 nM | Concentration, Post-surgery ([1]; Case 3, GBP, day +368, drug dose 200 mg): 78 nM | Concentration, Baseline ([1]; Case 3, GBP, drug dose 200 mg): 130 nM | Change in dose-adjusted concentration over the pre-surgery low-calorie diet [1]: decreased | Dose-adjusted drug concentration Median (IQR), Pre-diet/pre-surgery ([1]; human, in vivo): 51 (27–84) nmol/L | Dose-adjusted drug concentration Median (IQR), post-diet ([1]; human, in vivo): 39 (23–53) nmol/L | Dose-adjusted drug concentration Median (IQR), pre-diet ([1]; human, in vivo): 66 (43–87) nmol/L | concentration at 379 days after surgery (median), trough ([1]; human, in vivo): 25 nM | Reduction of dose-adjusted concentration on the last day of sampling [1]: 51%

CC1(C)O[C@@H]2[C@@H](CO[C@@]3(COS(N)(=O)=O)OC(C)(C)O[C@@H]23)O1 [Topiramate]
Dose-adjusted drug concentration Median (IQR), Pre-diet/pre-surgery [1, 7]: 33 (N/A) µmol/L | Dose-adjusted drug concentration Median (IQR), Post-surgery [1, 8]: 37 (N/A) µmol/L | Dose-adjusted drug concentration Median (IQR), post-diet [1, 9]: 31 (N/A) µmol/L | Dose-adjusted drug concentration Median (IQR), pre-diet [1, 10]: 39 (N/A) µmol/L

CCCC(CCC)C(=O)O [Valproic acid]
Dose-adjusted drug concentration Median (IQR), Pre-diet/pre-surgery [1, 7]: 533 (N/A) µmol/L | Dose-adjusted drug concentration Median (IQR), Post-surgery [1, 8]: 529 (N/A) µmol/L | Dose-adjusted drug concentration Median (IQR), post-diet [1, 9]: 759 (N/A) µmol/L | Dose-adjusted drug concentration Median (IQR), pre-diet [1, 10]: 737 (N/A) µmol/L

COc1ccc(C(CN(C)C)C2(O)CCCCC2)cc1 (stereo not shown) [Venlafaxine]
Dose-adjusted drug concentration Median (IQR), Pre-diet/pre-surgery [1, 3]: 173 (88–443) nmol/L | Dose-adjusted drug concentration Median (IQR), post-diet [1, 5]: 132 (87–215) nmol/L | Dose-adjusted drug concentration Median (IQR), pre-diet [1, 6]: 172 (79–399) nmol/L | concentration at 379 days after surgery (median), trough ([1]; human, oral, Table 2A, trough serum, adjusted for dose in DDDs, last observation carried forward, median 379 days after surgery, read-out: Dose-adjusted drug concentration Median (IQR), Post-surgery): 168 nM

NCCC(Oc1ccc(C(F)(F)F)cc1)c1ccccc1 (stereo not shown) [norfluoxetine]
Course of dose-adjusted concentration after surgery [1]: continued to increase also after surgery
